The values that follow come from patent US20040116420A1 (priority 2001, published 2004).

The subject of one series is Vero cells. Kind of series: Cytotoxicity, Vero cells, Alamar Blue. It is filed as cell-based. The conditions noted are these: 25 μM, 20 hours. Summed up: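 Overnight-seeded Vero cells were exposed to 25 μM compound in 2% FBS-DMEM for 20 h at 37 °C, 5% CO2. Alamar Blue was then added for about 6 h. The absorbance ratio relative to compound-free control gave the living-cell ratio.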
(Alamar Blue is a resazurin reagent that responds to reducing activity.)

The next series has as its system HSV-1. Kind of series: Antiviral activity, HSV-1 in Vero cells, plaque method. The class given is cell-based. The note with it: Human alphaherpesvirus 1, 20 hours, 90% inhibition of plaque formation. Summed up:
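HSV-1 (50,000 pfu in 2% FBS-DMEM) was added to Vero cells and removed, then the compound was applied in 2% FBS-DMEM for 20 h at 37° C, 5% CO2. After a freeze-thaw, virus yield in the medium was titred by plaque assay. EC90 is the concentration giving 90% plaque reduction versus the compound-free control.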

Another series deals with T1, HSV-1 protease (Human herpesvirus 1, UniProt P10210).
T1 construct: 6xHis (N); made in house; host or cells: baculovirus expression system
T1 sequence (P10210 1-247): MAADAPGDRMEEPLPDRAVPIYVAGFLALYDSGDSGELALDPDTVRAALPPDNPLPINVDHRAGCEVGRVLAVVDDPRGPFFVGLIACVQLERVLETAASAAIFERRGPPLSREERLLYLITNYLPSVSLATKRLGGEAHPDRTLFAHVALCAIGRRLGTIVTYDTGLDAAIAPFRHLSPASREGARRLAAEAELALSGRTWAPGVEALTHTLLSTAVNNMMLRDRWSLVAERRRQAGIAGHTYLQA
Kind of series: Enzymatic assay for HSV-1 protease (assembly) inhibitor, fluorescence polarization. It is filed as biochemical. The note with it: read-out: HSV-1 Enzyme inhibition IC50. In short, it runs like this: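 His6-tagged HSV-1 UL26 protease, baculovirus-expressed, preincubated 30 min at RT with compound in 1 M citrate/phosphate buffer pH 7.4 with 20% glycerol and 2 mM TCEP. A biotin-HTYLQA*SERFRIK-DTAF substrate was then cleaved for 60 min at RT, stopped with avidin, and read by fluorescence polarization versus no-inhibitor control.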
In general terms: Polarisation of emitted light reports the rotation of a fluorescent probe.

Bounds are passed on as bounds.

With `Cc1c(NC(=O)OC(C)(C)C)ccc2nc(N(C)[C@@H](Cc3ccccc3)C(=O)NCCc3ccccn3)oc(=O)c12` [Compound No.81, (5-Methyl-2-{methyl-[2-phenyl-1S-(2-pyridin-2-yl-ethylcarbamoyl)-ethyl]-amino}-4-oxo-4H-benzo[d][1,3]oxazin-6-yl)-carbamic acid tert-butyl ester], the “Cell viability (% of control)” value in the series with Vero cells is 49.7%. The compound also registered an EC90 in the series with HSV-1 of 9.5 µM. Also, at HSV-1 protease, the IC50 stood at 1.7 µM.

With `Cc1c(NC(=O)OC(C)(C)C)ccc2nc(N[C@@H](Cc3ccccc3)C(=O)N(C)CCc3ccncc3)oc(=O)c12` [Compound No.49, (5-Methyl-2-{1S-[methyl-(2-pyridin-4-yl-ethyl)-carbamoyl]-2-phenyl-ethylamino}-4-oxo-4H-benzo[d][1,3]oxazin-6-yl)-carbamic acid tert-butyl ester], the “Cell viability (% of control)” value in the series on Vero cells is 76.0%. Moreover, the 90% effect concentration (EC90) with HSV-1 was less than 3.2 µM. The IC50 on HSV-1 protease was 0.9 µM.

As for `Cc1c(NC(=O)OC(C)(C)C)ccc2nc(N[C@@H](CCc3ccccc3)C(=O)NCc3ccccn3)oc(=O)c12` [Compound No.39, (5-Methyl-4-oxo-2-{3-phenyl-1S-[(pyridin-2-ylmethyl)-carbamoyl]-propylamino}-4H-benzo[d][1,3]oxazin-6-yl)-carbamic acid tert-butyl ester], the “Cell viability (% of control)” value in the series on Vero cells came out at 90.1%. The 90% effect level in the series on HSV-1 (EC90) was put at 12.4 µM. Further, the IC50 at HSV-1 protease is 1.5 µM.

Turning to `Cc1c(NC(=O)OC(C)(C)C)ccc2nc(N[C@H](C(=O)NCc3ccccn3)C(C)(C)C)oc(=O)c12` [Compound No.32, (2-{2,2-dimethyl-1S-[(pyridin-2-ylmethyl)-carbamoyl]-propylamino}-5-methyl-4-oxo-4H-benzo[d][1,3]oxazin-6-yl)-carbamic acid tert-butyl ester], the “Cell viability (% of control)” value in the series on Vero cells came out at 111.0%. In the series with HSV-1, this compound displayed a 90% effect concentration (EC90) of 21.5 µM. On HSV-1 protease, the IC50 stood at 19.6 µM.

On to `Cc1c(NC(=O)OC(C)(C)C)ccc2nc(N(C)[C@@H](Cc3ccccc3)C(=O)N(C)Cc3ccccn3)oc(=O)c12` [Compound No.82, (5-Methyl-2-{methyl-[1S-(methyl-pyridin-2-ylmethyl-carbamoyl)-2-phenyl-ethyl]-amino}-4-oxo-4H-benzo[d][1,3]oxazin-6-yl)-carbamic acid tert-butyl ester], for which the “Cell viability (% of control)” value in the series on Vero cells is listed as 61.6%. This compound also had an EC90 in the series with HSV-1 of 10.8 µM. In addition, the IC50 at HSV-1 protease amounted to 1.5 µM.

As for `Cc1c(NC(=O)OC(C)(C)C)ccc2nc(N[C@@H](CC(C)C)C(=O)N(C)Cc3ccccn3)oc(=O)c12` [Compound No.62, {5-Methyl-2-[3-methyl-1S-(methyl-pyridin-2-ylmethyl-carbamoyl)-butylamino]-4-oxo-4H-benzo[d][1,3]oxazin-6-yl}-carbamic acid tert-butyl ester], the “Cell viability (% of control)” value with Vero cells is 83.9%. Also, in the series on HSV-1, the concentration for an effect of 90% (EC90) was determined as 4.7 µM. Moreover, the IC50 on HSV-1 protease was 2.4 µM.

On to `Cc1c(NC(=O)OC(C)(C)C)ccc2nc(N[C@@H](CCc3ccccc3)C(=O)NCc3cccnc3)oc(=O)c12` [Compound No.40, (5-Methyl-4-oxo-2-{3-phenyl-1S-[(pyridin-3-ylmethyl)-carbamoyl]-propylamino}-4H-benzo[d][1,3]oxazin-6-yl)-carbamic acid tert-butyl ester], for which, in the series with Vero cells, the “Cell viability (% of control)” value is 100.0%. In addition, the EC90 in the series on HSV-1 is greater than 25 µM. Also, at HSV-1 protease, the IC50 was greater than 20 µM.

In the case of `Cc1c(NC(=O)OC(C)(C)C)ccc2nc(N3Cc4ccccc4C[C@H]3C(=O)NCc3cccnc3)oc(=O)c12` [Compound No.95, (5-Methyl-4-oxo-2-{3S-[(pyridin-3-ylmethyl)-carbamoyl]-3,4-dihydro-1H-isoquinolin-2-yl}-4H-benzo[d][1,3]oxazin-6-yl)-carbamic acid tert-butyl ester], the “Cell viability (% of control)” value in the series with Vero cells came out at 44.0%. In addition, in the series on HSV-1, the EC90 was determined as 12.3 µM. For the same compound, the IC50 on HSV-1 protease was 4.4 µM.

For `Cc1c(NC(=O)c2ccccc2F)ccc2nc(NC(C)(C)C(=O)N(C)CCc3ccccn3)oc(=O)c12` [Compound No.147, 2-Fluoro-N-(5-methyl-2-{1-methyl-1-[methyl-(2-pyridin-2-yl-ethyl)-carbamoyl]-ethylamino}-4-oxo-4H-benzo[d][1,3]oxazin-6-yl)-benzamide], the “Cell viability (% of control)” value with Vero cells came out at 70.2%. Besides, the EC90 in the series with HSV-1 is 10.2 µM. Also, on HSV-1 protease, the IC50 was 1.6 µM.

For `Cc1c(NC(=O)OC(C)(C)C)ccc2nc(N3C[C@H](OCc4ccccc4)C[C@H]3C(=O)N(C)Cc3ccccn3)oc(=O)c12` [Compound No.113, {2-[4R-Benzyloxy-2S-(methyl-pyridin-2-ylmethyl-carbamoyl)-pyrrolidin-1-yl]-5-methyl-4-oxo-4H-benzo[d][1,3]oxazin-6-yl}-carbamic acid tert-butyl ester], the “Cell viability (% of control)” value in the series on Vero cells is given as 71.7%. In the series with HSV-1, this compound gave an EC90 of 8.8 µM. The IC50 on HSV-1 protease stood at 10.1 µM.

On to `CCCCCc1ccc(C(=O)Nc2ccc3nc(NC(C)(C)C(=O)N(C)CCc4ccccn4)oc(=O)c3c2C)cc1` [Compound No.185, N-(5-Methyl-2-{1-methyl-1-[methyl-(2-pyridin-2-yl-ethyl)-carbamoyl]-ethylamino}-4-oxo-4H-benzo[d][1,3]oxazin-6-yl)-4-pentyl-benzamide], for which the “Cell viability (% of control)” value in the series with Vero cells worked out at 29.0%. For the same compound, the 90% effect level with HSV-1 (EC90) was put at 3.5 µM. For the same compound, at HSV-1 protease, the IC50 was found to be 7 µM.

In the case of `Cc1c(NC(=O)OC(C)(C)C)ccc2nc(NC(C)(C)C(=O)NCc3ccncc3)oc(=O)c12` [Compound No.34, (5-Methyl-2-{1-methyl-1-[(pyridin-4-ylmethyl)-carbamoyl]-ethylamino}-4-oxo-4H-benzo[d][1,3]oxazin-6-yl)-carbamic acid tert-butyl ester], the “Cell viability (% of control)” value with Vero cells stood at 102.0%. The compound also displayed an EC90 in the series with HSV-1 greater than 25 µM. For the same compound, the IC50 at HSV-1 protease turned out to be 1.6 µM.

Consider `Cc1c(NC(=O)OC(C)(C)C)ccc2nc(N[C@@H](CC3CCCCC3)C(=O)N(C)Cc3ccccn3)oc(=O)c12` [Compound No.63, {2-[2-Cyclohexyl-1S-(methyl-pyridin-2-ylmethyl-carbamoyl)-ethylamino]-5-methyl-4-oxo-4H-benzo[d][1,3]oxazin-6-yl}-carbamic acid tert-butyl ester], for which, in the series with Vero cells, the “Cell viability (% of control)” value was determined as 60.1%. The concentration for an effect of 90% (EC90) in the series on HSV-1 was less than 3.2 µM. Moreover, at HSV-1 protease, the IC50 came to 1.2 µM.

As to `Cc1c(NC(=O)C2CCCC2)ccc2nc(NC(C)(C)C(=O)N(C)CCc3ccccn3)oc(=O)c12` [Compound No.188, Cyclopentanecarboxylic acid (5-methyl-2-{1-methyl-1-[methyl-(2-pyridin-2-yl-ethyl)-carbamoyl]-ethylamino}-4-oxo-4H-benzo[d][1,3]oxazin-6-yl)-amide], in the series on Vero cells, the “Cell viability (% of control)” value was 91.7%. This compound also yielded an EC90 in the series with HSV-1 greater than 12.5 µM. The IC50 at HSV-1 protease was found to be 1.4 µM.

On to `Cc1c(NC(=O)c2ccc3ccccc3c2)ccc2nc(NC(C)(C)C(=O)N(C)CCc3ccccn3)oc(=O)c12` [Compound No.194, Naphthalene-2-carboxylic acid (5-methyl-2-{1-methyl-1-[methyl-(2-pyridin-2-yl-ethyl)-carbamoyl]-ethylamino}-4-oxo-4H-benzo[d][1,3]oxazin-6-yl)-amide], for which, in the series with Vero cells, the “Cell viability (% of control)” value is listed as 71.8%. In the series on HSV-1, this compound registered a 90% effect concentration (EC90) of 11.8 µM. The IC50 at HSV-1 protease came to 6.7 µM.

As to `Cc1c(NC(=O)OC(C)(C)C)ccc2nc(N3CCCC[C@H]3C(=O)N(C)CCc3ccccn3)oc(=O)c12` [Compound No.106, (5-Methyl-2-{2S-[methyl-(2-pyridin-2-yl-ethyl)-carbamoyl]-piperidin-1-yl}-4-oxo-4H-benzo[d][1,3]oxazin-6-yl)-carbamic acid tert-butyl ester], in the series on Vero cells, the “Cell viability (% of control)” value is on record as 53.3%. For the same compound, the concentration for an effect of 90% (EC90) in the series with HSV-1 was greater than 12.5 µM. For the same compound, at HSV-1 protease, the IC50 was 7.6 µM.

As for `Cc1c(NC(=O)COCc2ccccc2)ccc2nc(NC(C)(C)C(=O)N(C)CCc3ccccn3)oc(=O)c12` [Compound No.184, 2-[6-(2-Benzyloxy-acetylamino)-5-methyl-4-oxo-4H-benzo[d][1,3]oxazin-2-ylamino]-2,N-dimethyl-N-(2-pyridin-2-yl-ethyl)-propionamide], in the series with Vero cells, the “Cell viability (% of control)” value was found to be 93.1%. Also, the 90% effect level in the series on HSV-1 (EC90) was put at 12.1 µM. Besides, the IC50 at HSV-1 protease came out at 2.1 µM.

For the compound `Cc1c(NC(=O)OC(C)(C)C)ccc2nc(N[C@@H](CC(C)C)C(=O)N(C)CCc3ccccn3)oc(=O)c12` [Compound No.46, (5-Methyl-2-{3-methyl-1S-[methyl-(2-pyridin-2-yl-ethyl)-carbamoyl]-butylamino}-4-oxo-4H-benzo[d][1,3]oxazin-6-yl)-carbamic acid tert-butyl ester], in the series on Vero cells, the “Cell viability (% of control)” value was 80.1%. In the series with HSV-1, this compound came in with an EC90 of 4.9 µM. At HSV-1 protease, the concentration for half-maximal inhibition (IC50) was 1.7 µM.

Take `Cc1c(NC(=O)c2cccc(C#N)c2)ccc2nc(NC(C)(C)C(=O)N(C)CCc3ccccn3)oc(=O)c12` [Compound No.143, 3-Cyano-N-(5-methyl-2-{1-methyl-1-[methyl-(2-pyridin-2-yl-ethyl)-carbamoyl]-ethylamino}-4-oxo-4H-benzo[d][1,3]oxazin-6-yl)-benzamide]: the “Cell viability (% of control)” value with Vero cells is recorded as 86.9%. For the same compound, the concentration for an effect of 90% (EC90) in the series with HSV-1 is greater than 12.5 µM. For the same compound, the IC50 at HSV-1 protease was 3.7 µM.

By EC90 is commonly meant the concentration needed for an effect of 90%. Broadly, the IC50 is the concentration that inhibits the measured activity by half.
